No end group written: not given here.

Data set [1] relates to chicken red blood cells. Put plainly: Hemolytic assay. The class given is cell-based. The procedure:
(§1) Hemolytic assays of peptides were performed as previously described. Briefly, human red blood cells (hRBCs) obtained from UNMC Blood Bank, or chicken or porcine blood cells purchased from commercial sources as previously described, were washed three times with phosphate buffer saline (PBS) and diluted to a 2% solution (V/v). After peptide treatment, incubation at 37 °C for one hour, and centrifugation at 13,000 rpm, aliquots of the supernatant were carefully transferred to a fresh 96-well microplate. The amount of hemoglobin released was measured at 545 nm. The percent lysis was calculated by assuming 100% release when human blood cells were treated with 2% Triton X-100, and 0% release when incubated with PBS buffer. The peptide concentration that caused 50% lysis of hRBCs is defined as HC50.

The subject of data set [2] is human red blood cells. Put plainly: Hemolytic assay. The class given is cell-based. The following applies: red cells of human. The procedure:
as §1

Data set [3] concerns S. aureus USA300. The class given is cell-based, Staphylococcus aureus. Particulars: USA300. Here is the method:
(§2) The antibacterial activity of peptides was evaluated using a standard broth microdilution protocol with minor modifications as previously described. In brief, logarithmic phase bacterial cultures (i.e., optical density at 600 nm ≈ 0.5) were diluted to OD600~0.001 and partitioned into a 96-well polystyrene microplate at 90 μL per well. After treatment with 10 μL of peptide solutions two-fold diluted to various concentrations, microplates were incubated at 37 °C overnight and read on a ChroMate 4300 Microplate Reader at 630 nm (GMI, Ramsey, MN). […] Minimal bactericidal concentration (MBC) was determined by plating the clear wells at MIC or above. The peptide concentration that caused no bacterial growth on the petri dish is MBC.

Data set [4] deals with P. aeruginosa PAO1. The class given is cell-based, Pseudomonas aeruginosa. Particulars: PAO1. Here is the method:
(§3) The antimicrobial activity spectrum of the WW peptide series was performed on a panel of Gram-positive and -negative bacteria using the standard broth micro-dilution method with minor modifications as described. […] There was a small change in the case of Pseudomonas aeruginosa and Acinetobacter baumannii up to two-fold. Four-fold changes were found for Staphylococcus aureus, Staphylococcus epidermidis, Escherichia coli, and Bacillus subtilis. However, we observed over eight-fold MIC changes for Klebsiella pneumoniae and vancomycin-resistant enterococcus (VRE). […] We also observed more than eight-fold changes in minimal bacterial killing concentrations.
as §2

Data set [5] concerns E. coli ATCC 25922. The format is cell-based, Escherichia coli. Particulars: ATCC 25922. Here is the method: (§4) To gain additional insight, we also compared the effects of physiological saline and human serum on the antibacterial activities of WW291-WW298 using both E. coli and S. aureus (Table 3). In our assays, salts and serum were present during the entire course of the experiment. […] Thus, WW295 and WW298 stand out in terms of activity robustness (bold in Table 3).
as §2

In data set [6] the test system is E. coli K12. The class given is cell-based, Escherichia coli. The following applies: K12. The procedure: as §3, §2
The subject of data set [7] is S. aureus Mu50. The class given is cell-based, Staphylococcus aureus. Particulars: Mu50. Here is the method: as §3, §2
Data set [8] deals with E. faecium VRE. The format is cell-based. The following applies: VRE. The procedure: as §3, §2
In data set [9] the test system is B. subtilis 167. The format is cell-based, Bacillus subtilis. Particulars: 167. The procedure: as §3, §2
Data set [10] deals with A. baumannii B28-16. The class given is cell-based, Acinetobacter baumannii. The following applies: B28-16. Here is the method: as §3, §2
For data set [11], the system named is S. aureus USA300 LAC. The format is cell-based, Staphylococcus aureus. Particulars: USA300. Here is the method: as §4, §2
Data set [12] deals with monkey kidney Vero E6 cells. The format is cell-based. The procedure: Peptides were assayed for potential in vitro toxicity against human keratinocytes (HaCaT) and THP-1 cells as previously described. THP-1 monocytes were differentiated into macrophages by adding 30 ng/mL of phorbol 12-myristate 13-acetate (PMA; Sigma-Aldrich) to RPMI 1640 supplemented with 10% fetal calf serum culture (FCS) medium for 16 h. Briefly, cells were seeded at a density of 3 × 10^4 per well in a tissue culture 96-well plate in DMEM/RPMI supplemented with 10% fetal bovine serum (FBS), and incubated at 37 °C in a 5% CO2 atmosphere for 24 h. African green monkey kidney Vero E6 cells were cultivated in EMEM in the same manner. Before antimicrobial treatment, wells were replaced with serum free media and treated with peptides at different concentrations for one hour. After incubation, the cells were washed and incubated with 100 μL of DMEM media containing 20 μL of 3-(4,5-dimethylthiazol-2-yl)-5-(3-carboxymethoxyphenyl)-2-(4-sulfophenyl)-2H-tetrazolium (MTS) reagent for two hours at 37 °C. […] Absorbance readings at 492 nm were taken using a ChroMate microplate reader (GMI, Ramsey, MN, USA).

For data set [13], the system named is K. pneumonia ATCC 13883. Particulars: cited from earlier work. From the text: Table 2 Antibacterial activities of the WW peptides against various bacteria. | column: Minimal Inhibitory Concentration (MIC, μM) / KP ^a

For WWWLRKIW [WW291], in data set [1], the “Chicken RBC, concentration that caused 50% red blood cell lysis (HC50)” value is reported as 50 µM. In addition, the “Human RBC, concentration that caused 50% red blood cell lysis (HC50)” value in [2] is 30 µM. Moreover, in data set [3], the “MBC, USA300” value stood at 6.2 µM. Also, in data set [4], the “Minimal Inhibitory Concentration (MIC), PA” value is 50 µM. Moreover, in data set [5], the “MIC, +150 mM NaCl” value is on record as 12.5 µM; the “MIC, +10% Human Serum” value is greater than 25 µM; the “MIC, TSB” value is 6.2 to 12.5 µM. For the same sequence, in data set [6], the “Minimal Inhibitory Concentration (MIC), EC” value lay within 6.2 to 12.5 µM. In addition, the “Minimal Inhibitory Concentration (MIC), SA” value in data set [7] was 3.1 µM. Further, the “Minimal Inhibitory Concentration (MIC), VRE” value in [8] was found to be 25 µM. Besides, the “Minimal Inhibitory Concentration (MIC), BS” value in data set [9] turned out to be 6.25 µM. For the same sequence, the “Minimal Inhibitory Concentration (MIC), AB” value in data set [10] amounted to 6.25 µM. For the same sequence, in data set [11], the “MIC, +150 mM NaCl” value came to 3.1 µM; the “MIC, +10% Human Serum” value turned out to be 25 µM; the “MIC, TSB” value was 3.1 µM. In addition, in [12], the “Vero Cells, concentration that caused 50% cell death (LC50)” value was 100 µM. Besides, the “Minimal Inhibitory Concentration (MIC), KP” value in [13] was 12.5 µM.

Values taken from PMC7600788, “Sequence Permutation Generates Peptides with Different Antimicrobial and Antibiofilm Activities” (Pharmaceuticals, 2020).
